# Target: T1, cereblon (Homo sapiens, UniProt Q96SW2)
# T1 construct: gene CRBN; cereblon/DDB1-CUL4A-Rbx1 complex; with DDB1-CUL4A-Rbx1
# Test: AlphaScreen bead-based cereblon binding assay (BPS Bioscience #[…]) with BRD3
# T1 sequence (Q96SW2 whole entry): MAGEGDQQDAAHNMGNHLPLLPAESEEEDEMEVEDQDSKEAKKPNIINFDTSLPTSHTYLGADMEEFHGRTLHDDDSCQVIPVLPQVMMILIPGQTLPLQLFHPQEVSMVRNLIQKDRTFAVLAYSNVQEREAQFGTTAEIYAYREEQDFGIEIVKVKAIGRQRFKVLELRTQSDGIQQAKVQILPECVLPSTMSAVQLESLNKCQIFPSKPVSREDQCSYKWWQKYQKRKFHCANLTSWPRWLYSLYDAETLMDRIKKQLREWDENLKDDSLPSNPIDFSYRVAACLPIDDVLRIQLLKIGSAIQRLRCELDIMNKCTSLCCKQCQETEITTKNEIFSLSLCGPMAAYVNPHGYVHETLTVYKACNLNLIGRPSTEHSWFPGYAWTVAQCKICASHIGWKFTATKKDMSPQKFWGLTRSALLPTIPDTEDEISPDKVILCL
# T1 sequence (Q16531 2-1140 partner): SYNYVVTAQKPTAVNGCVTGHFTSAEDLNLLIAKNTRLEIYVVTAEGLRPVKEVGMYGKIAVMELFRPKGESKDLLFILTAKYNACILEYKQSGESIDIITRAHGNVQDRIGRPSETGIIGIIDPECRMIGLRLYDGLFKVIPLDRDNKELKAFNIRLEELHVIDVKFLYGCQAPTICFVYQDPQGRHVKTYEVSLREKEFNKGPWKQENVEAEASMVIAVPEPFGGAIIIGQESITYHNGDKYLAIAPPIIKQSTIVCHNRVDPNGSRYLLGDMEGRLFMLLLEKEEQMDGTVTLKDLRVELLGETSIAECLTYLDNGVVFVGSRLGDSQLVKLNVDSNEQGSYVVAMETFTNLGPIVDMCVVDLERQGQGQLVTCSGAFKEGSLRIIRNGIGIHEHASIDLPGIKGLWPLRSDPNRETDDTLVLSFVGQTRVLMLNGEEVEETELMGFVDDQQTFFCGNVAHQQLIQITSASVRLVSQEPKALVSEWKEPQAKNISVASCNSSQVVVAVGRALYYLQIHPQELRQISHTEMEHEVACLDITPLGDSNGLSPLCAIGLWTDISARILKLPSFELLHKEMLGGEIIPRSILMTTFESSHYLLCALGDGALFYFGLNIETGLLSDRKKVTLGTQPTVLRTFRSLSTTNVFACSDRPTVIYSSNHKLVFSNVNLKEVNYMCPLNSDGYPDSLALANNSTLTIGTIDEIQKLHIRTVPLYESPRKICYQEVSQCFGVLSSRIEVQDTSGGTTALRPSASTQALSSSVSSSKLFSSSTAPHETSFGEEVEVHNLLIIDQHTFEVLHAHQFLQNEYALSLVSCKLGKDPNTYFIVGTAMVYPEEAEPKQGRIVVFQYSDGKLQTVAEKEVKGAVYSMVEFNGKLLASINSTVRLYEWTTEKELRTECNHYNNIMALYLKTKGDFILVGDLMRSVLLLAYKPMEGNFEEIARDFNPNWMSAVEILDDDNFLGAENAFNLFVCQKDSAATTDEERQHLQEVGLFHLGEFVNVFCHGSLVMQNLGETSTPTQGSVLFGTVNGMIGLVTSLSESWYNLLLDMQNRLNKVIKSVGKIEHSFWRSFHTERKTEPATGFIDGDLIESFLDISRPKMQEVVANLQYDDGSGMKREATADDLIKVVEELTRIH
# T1 sequence (Q13619 whole entry partner): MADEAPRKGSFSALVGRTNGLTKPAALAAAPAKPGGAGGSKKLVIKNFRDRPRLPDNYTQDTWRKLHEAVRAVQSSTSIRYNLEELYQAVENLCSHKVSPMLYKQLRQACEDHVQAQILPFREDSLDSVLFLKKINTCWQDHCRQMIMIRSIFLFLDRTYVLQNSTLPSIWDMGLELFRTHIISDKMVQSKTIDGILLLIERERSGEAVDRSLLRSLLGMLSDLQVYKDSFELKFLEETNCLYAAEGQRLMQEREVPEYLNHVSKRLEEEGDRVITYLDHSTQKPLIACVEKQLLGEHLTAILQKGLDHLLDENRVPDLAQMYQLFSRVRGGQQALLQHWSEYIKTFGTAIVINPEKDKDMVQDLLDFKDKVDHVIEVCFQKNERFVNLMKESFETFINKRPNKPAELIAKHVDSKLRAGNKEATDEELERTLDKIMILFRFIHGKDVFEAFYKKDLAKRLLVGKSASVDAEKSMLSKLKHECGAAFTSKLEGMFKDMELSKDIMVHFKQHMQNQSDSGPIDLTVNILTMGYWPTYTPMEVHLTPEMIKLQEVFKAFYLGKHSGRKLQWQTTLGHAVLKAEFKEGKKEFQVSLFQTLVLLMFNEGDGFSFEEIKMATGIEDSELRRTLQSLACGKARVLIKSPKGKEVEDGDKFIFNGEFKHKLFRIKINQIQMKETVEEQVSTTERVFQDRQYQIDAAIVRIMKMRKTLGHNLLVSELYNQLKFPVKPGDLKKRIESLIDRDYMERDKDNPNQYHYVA
# T1 sequence (P62877 whole entry partner): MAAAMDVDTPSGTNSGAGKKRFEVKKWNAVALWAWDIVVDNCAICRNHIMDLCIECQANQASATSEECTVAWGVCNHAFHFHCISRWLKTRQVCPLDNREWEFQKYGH
row,IC50 [nM],SMILES
1,1520,"Nc1cccc2c1C(=O)N(C1CCC(=S)NC1=O)C2=S (centres unmarked) [1,6′-DP, 1,6′-dithiopomalidomide]"
2,940,"Nc1cccc2c1C(=S)N(C1CCC(=S)NC1=O)C2=O (centres unmarked) [3,6′-DP, 3,6′-dithiopomalidomide]"
